# In patent publication US12655130B2 (ASSEMBLY BIOSCIENCES, INC., priority 2020, dated 2026):
# Test system: HBV viral load (viral production from HepAD38 cells)
# Assay: Activity of test compounds on viral production from HepAD38 cells (viral load by qPCR of HBV core sequence)
# Assay type: cell-based
# Conditions: Hepatitis B virus, HePAD38, 120 h, viral load lowering, 5 days, qPCR of supernatant, read-out: VL HepAD38 EC50 range
# Description: Assay Measuring Activity of Test Compounds on Viral Production from HepAD38 Cells
# HepAD38 cells grown in a T-150 flask (Corning, cat #: 430825) with Growth Medium (DMEM/F12 (1:1) (Hyclone, cat #: SH30023.02), 1× Pen/Strep (Invitrogen, cat #: 15140-122), 10% FBS (Tissue Culture Biologics, cat #: 101), 250 μg/mL G418 (Alfa Aesar, cat #: J62671), 1 μg/mL Tetracycline (Teknova, cat #: T3320)) were detached with 0.25% trypsin-EDTA (Invitrogen, cat #: 25200-056). Tetracycline-free treatment medium (15 mL DMEM/F12 (1:1) 1× Pen/step, with 2% FBS, Tet-system approved (Clontech, cat #: 631106) were then added to mix, transferred into a 50 ml conical tube (Falcon, cat #: 21008-918) and spun at 1300 rpm for 5 min. Pelleted cells were then re-suspended/washed with 50 mL of 1×DPBS (Invitrogen, cat #: 14190-136) 2 times and 50 mL treatment medium twice. HepAD38 cells were then re-suspended with 10 mL of treatment medium, syringed and counted. Wells of 96-well clear bottom TC plate (Corning, cat #: 3904) were seeded at 50,000 cells/well in 180 μL of treatment medium, and 20 μL of either 10% DMSO (Sigma, cat #: D4540) as controls or a 10× solution of test compounds in 10% DMSO in treatment media was added for a final compound concentration starting at 10 μM, and plates were incubated in 5% CO2 incubator at 37° C. for 5 days.
# Subsequently viral load production was assayed by quantitative PCR (qPCR) of the HBV core sequence. PCR reaction mixture containing forward primers HBV-f 5′-CTGTGCCTTGGGTGGCITT-3′ (IDT DNA), Reverse primers HBV-r 5′-[…]-3′ (IDT DNA), Fluorescent TaqMan™ Probes HBV-probe 5′-FAM/AGCTCCAAA/ZENMITCTITATAAGGGTCGATGTC/3IABkFQ-3′ (IDT DNA), 10 μL/well of PerfeCTa® qPCR ToughMix® (Quanta Biosciences, Cat #: 95114-05K), and 6 μL/well of DEPC water (Alfa Aesar, cat #: J62087) was prepared. Four μL of supernatant was added to 16 μL of the reaction mixture in a qPCR plate (Applied Biosytems, Cat #: 4309849), sealed with a film (Applied Biosystems, Cat #: 4311971), centrifuged for a few seconds, and subsequently run on an Applied Biosystems VIIA7. The PCR mixture was incubated at 45° C. for 5 min, then 95° C. for 10 min, followed by 40 cycles of 10 seconds at 95° C. and 20 seconds at 60° C. Viral load was quantified against known HBV DNA standards by using ViiA™ 7 Software. Viral load in the supernatant from wells with treated cells were compared against viral load in supernatant from DMSO control wells (3 per plate). Cell viability assay was performed with CellTiter-Glo Luminescent Cell Viability Assay (Promega, cat #: G7573) with modification. Mixed appropriate amount of CellTiter-Glo (CTG) 1×DPBS in a 1:1 ratio, added 100 uL of the mixture to each well followed completely removal of all supernatant in each well without touching cell surface. Incubated the plate at room temperature for 10 min on an orbital shaker, and then read the plate with a plate reader (TECAN M1000 or Envision). EC50 or CC50 values were calculated through curve-fitting of the four-parameter nonlinear-logistic-regression model (GraphPad Prism or Dotmatics). CC50 values were all >10 μM.
row,SMILES,EC50 [nM]
1,"Cn1cnc(C2CC3CC(O)(c4cc(C(C)(C)C(N)=O)nn4C)CC3C2)c1C(=O)Nc1ccc(F)c(Cl)c1 (centres unmarked) [Example 106, 4-(5-(3-(1-amino-2-methyl-1-oxopropan-2-yl)-1-methyl-1H-pyrazol-5-yl)-5-hydroxyoctahydropentalen-2-yl)-N-(3-chloro-4-fluorophenyl)-1-methyl-1H-imidazole-5-carboxamide]",< 10
2,"CC(C)n1nc(NCC(C)(C)O)c(F)c1C1(O)CC2CC(c3ncn(C)c3C(=O)Nc3ccc(F)c(Cl)c3)CC2C1 (centres unmarked) [Example 216, N-(3-Chloro-4-fluorophenyl)-4-(5-(4-fluoro-3-((2-hydroxy-2-methylpropyl)amino)-1-isopropyl-1H-pyrazol-5-yl)-5-hydroxyoctahydropentalen-2-yl)-1-methyl-1H-imidazole-5-carboxamide]",< 10
3,"Cn1cnc(C2CC3CC(O)(c4c(F)c(OCC(O)C(F)(F)F)nn4C)CC3C2)c1C(=O)Nc1ccc(F)c(Cl)c1 (centres unmarked) [Example 62, N-(3-Chloro-4-fluorophenyl)-4-(5-(4-fluoro-1-methyl-3-(3,3,3-trifluoro-2-hydroxypropoxy)-1H-pyrazol-5-yl)-5-hydroxyoctahydropentalen-2-yl)-1-methyl-1H-imidazole-5-carboxamide]",< 10
4,"CC(C)(C)OC(=O)N1CCn2c(nc(C3CC4CC(=O)CC4C3)c2C(=O)Nc2ccc(F)c(Cl)c2)C1 (centres unmarked) [Example 90, tert-butyl 3-((3-chloro-4-fluorophenyl)carbamoyl)-2-(5-oxooctahydro-pentalen-2-yl)-5,6-dihydroimidazo[1,2-a]pyrazine-7(8H)-carboxylate]",50 to 500
5,"CC(C)n1nc(N)c(Cl)c1C1(O)CC2CC(c3ncn(C)c3C(=O)Nc3ccc(F)c(Cl)c3)CC2C1 (centres unmarked) [Example 102, 4-(5-(3-amino-4-chloro-1-isopropyl-1H-pyrazol-5-yl)-5-hydroxyoctahydropentalen-2-yl)-N-(3-chloro-4-fluorophenyl)-1-methyl-1H-imidazole-5-carboxamide]",< 10
6,"CC(C)n1cc(C(F)(F)F)c(C2(O)CC3CC(c4ncn(C)c4C(=O)Nc4ccc(F)c(Cl)c4)CC3C2)n1 (centres unmarked) [Example 160, N-(3-Chloro-4-fluorophenyl)-4-(5-hydroxy-5-(1-isopropyl-4-(trifluoromethyl)-1H-pyrazol-3-yl)octahydropentalen-2-yl)-1-methyl-1H-imidazole-5-carboxamide]",< 10
7,"CC(=O)c1cc(C2(O)CC3CC(c4ncn(C)c4C(=O)Nc4ccc(F)c(Cl)c4)CC3C2)n(C)n1 (centres unmarked) [Example 58, 4-(5-(3-Acetyl-1-methyl-1H-pyrazol-5-yl)-5-hydroxyoctahydropentalen-2-yl)-N-(3-chloro-4-fluorophenyl)-1-methyl-1H-imidazole-5-carboxamide]",< 10
8,"Cn1cnc(C2CC3CC(O)(c4[nH]ncc4Cl)CC3C2)c1C(=O)Nc1ccc(F)c(Cl)c1 (centres unmarked) [Example 143, 4-(5-(4-Chloro-1H-pyrazol-5-yl)-5-hydroxyoctahydropentalen-2-yl)-N-(3-chloro-4-fluorophenyl)-1-methyl-1H-imidazole-5-carboxamide]",< 10
9,"CNS(=O)(=O)Nc1cc(C2(O)CC3CC(c4ncn(C)c4C(=O)Nc4ccc(F)c(Cl)c4)CC3C2)n(C)n1 (centres unmarked) [Example 201, N-(3-Chloro-4-fluorophenyl)-4-(5-hydroxy-5-(1-methyl-3-((N-methylsulfamoyl)amino)-1H-pyrazol-5-yl)octahydropentalen-2-yl)-1-methyl-1H-imidazole-5-carboxamide]",< 10
10,"Cn1cnc(C2CC3CC(O)(c4n[nH]cc4C(F)F)CC3C2)c1C(=O)Nc1ccc(F)c(Cl)c1 (centres unmarked) [Example 169, N-(3-Chloro-4-fluorophenyl)-4-(5-(4-(difluoromethyl)-1H-pyrazol-3-yl)-5-hydroxyoctahydropentalen-2-yl)-1-methyl-1H-imidazole-5-carboxamide]",< 10
11,"Cn1cc(C2(O)CC3CC(c4ncn(C)c4C(=O)Nc4ccc(F)c(Cl)c4)CC3C2)c(F)n1 (centres unmarked) [Example 175, N-(3-Chloro-4-fluorophenyl)-4-(5-(3-fluoro-1-methyl-1H-pyrazol-4-yl)-5-hydroxyoctahydropentalen-2-yl)-1-methyl-1H-imidazole-5-carboxamide]",< 10
12,"CCC(C)n1nc(N)cc1C1(O)CC2CC(c3ncn(C)c3C(=O)Nc3ccc(F)c(Cl)c3)CC2C1 (centres unmarked) [Example 161, 4-(5-(3-Amino-1-(sec-butyl)-1H-pyrazol-5-yl)-5-hydroxyoctahydropentalen-2-yl)-N-(3-chloro-4-fluorophenyl)-1-methyl-1H-imidazole-5-carboxamide]",< 10
13,"Cn1cc(CC2(O)CC3CC(c4ncn(C)c4C(=O)Nc4ccc(F)c(Cl)c4)CC3C2)cn1 (centres unmarked) [Example 130, N-(3-chloro-4-fluorophenyl)-4-(5-hydroxy-5-((1-methyl-1H-pyrazol-4-yl)methyl)octahydropentalen-2-yl)-1-methyl-1H-imidazole-5-carboxamide]",< 10
14,"CC(CO)COc1cc(C2(O)CC3CC(c4ncn(C)c4C(=O)Nc4ccc(F)c(Cl)c4)CC3C2)n(C)n1 (centres unmarked) [Example 211, N-(3-Chloro-4-fluorophenyl)-4-(5-hydroxy-5-(3-(3-hydroxy-2-methylpropoxy)-1-methyl-1H-pyrazol-5-yl)octahydropentalen-2-yl)-1-methyl-1H-imidazole-5-carboxamide]",< 10
15,"CC(O)c1nn(C)cc1C1(O)CC2CC(c3ncn(C)c3C(=O)Nc3ccc(F)c(Cl)c3)CC2C1 (centres unmarked) [Example 186, N-(3-Chloro-4-fluorophenyl)-4-(5-hydroxy-5-(3-(1-hydroxyethyl)-1-methyl-1H-pyrazol-4-yl)octahydropentalen-2-yl)-1-methyl-1H-imidazole-5-carboxamide]",< 10
16,"CC(=O)Nc1cc(C2(O)CC3CC(c4ncn(C)c4C(=O)Nc4ccc(F)c(Cl)c4)CC3C2)n(C)n1 (centres unmarked) [Example 163, 4-(5-(3-Acetamido-1-methyl-1H-pyrazol-5-yl)-5-hydroxyoctahydropentalen-2-yl)-N-(3-chloro-4-fluorophenyl)-1-methyl-1H-imidazole-5-carboxamide]",< 10
17,"Cn1cnc(C2CC3CC(O)(c4c(Br)c(C#N)nn4C)CC3C2)c1C(=O)Nc1ccc(F)c(Cl)c1 (centres unmarked) [Example 181, 4-(5-(4-Bromo-3-cyano-1-methyl-1H-pyrazol-5-yl)-5-hydroxyoctahydropentalen-2-yl)-N-(3-chloro-4-fluorophenyl)-1-methyl-1H-imidazole-5-carboxamide]",< 10
18,"CC(C)Cn1nc(N)c(Cl)c1C1(O)CC2CC(c3ncn(C)c3C(=O)Nc3ccc(F)c(Cl)c3)CC2C1 (centres unmarked) [Example 172, 4-(5-(3-Amino-4-chloro-1-isobutyl-1H-pyrazol-5-yl)-5-hydroxyoctahydropentalen-2-yl)-N-(3-Chloro-4-fluorophenyl)-1-methyl-1H-imidazole-5-carboxamide]",< 10
19,"Cn1cc(Cl)c(C2(O)CC3CC(c4ncn(C)c4C(=O)Nc4ccc(F)c(Cl)c4)CC3C2)n1 (centres unmarked) [Example 139, 4-(5-(4-Chloro-1-methyl-1H-pyrazol-3-yl)-5-hydroxyoctahydropentalen-2-yl)-N-(3-chloro-4-fluorophenyl)-1-methyl-1H-imidazole-5-carboxamide]",< 10

# Same assay, conditions: viral load lowering, 5 days, qPCR of supernatant, read-out: VL HepAD38 EC50 range
row,SMILES,EC50 [nM]
1,"CC(O)c1cc(C2(O)CC3CC(c4ncn(C)c4C(=O)Nc4ccc(F)c(Cl)c4)CC3C2)n(C)n1 (centres unmarked) [Example 60, N-(3-Chloro-4-fluorophenyl)-4-(5-hydroxy-5-(3-(1-hydroxyethyl)-1-methyl-1H-pyrazol-5-yl)octahydropentalen-2-yl)-1-methyl-1H-imidazole-5-carboxamide]",< 10
